In paper PMC5469451, “Identification of compounds that suppress Toxoplasma gondii tachyzoites and bradyzoites” (PLoS ONE, 2017):
Like-named read-outs stand apart in the source and are kept apart here.

How the values were obtained:
HFF cells [1] = test: Host cell viability in bradyzoite differentiation condition; assay type: cell-based, human
Procedure: To evaluate the host cell viability in bradyzoite differentiation condition, HFF cells were incubated for 48 h in DMEM containing 25 mM HEPES pH 8.1 and 1% FBS and measured the viability as described above.

[2] = test system: PruΔku80Δhxgprt in HFF cells; test: Immunofluorescence-based assay on spontaneously induced bradyzoites; assay type: cell-based, Toxoplasma gondii; conditions: 10, 2, 0.4, 0.08 μM, 48 h; for Bradyzoite differentiation (GFP-positive PV rate): compared with DMSO
Procedure: PruΔku80Δhxgprt, which expresses GFP under the control of a bradyzoite-specific gene LDH2 promoter, [13] was used. HFF host cells were seeded to a 96-well glass bottom plate (MGB096-1-2-LG-L, Brooks Automation, MA, USA) and cultured until confluent. Parasites were freshly lysed by passing them through 27 G needles and were purified by passing them through a 5-μm-pore filter. Five thousand parasites in 100 μL of culture medium were added and mixed with an equal volume of compound-containing medium to give final drug concentrations of 10, 2, 0.4, and 0.08 μM in 0.2% DMSO. After incubation at room temperature for 10 min, the infected host cells were incubated for 48 h at 37°C in a 5% CO2 incubator. After incubation, the cells were fixed with 4% paraformaldehyde in PBS for 20 min, quenched, and permeabilized with 0.2 M glycine and 0.2% TritonX-100 in PBS for 20 min, and then blocked with 3% BSA and 0.1% Tween 20 in PBS (blocking buffer); each procedure was performed at room temperature and was followed by washes with PBS three times. All parasites were stained with an anti-Toxoplasma mouse antibody (antisera produced in ME49-infected mice), and bradyzoites were detected with an anti-GFP rabbit monoclonal antibody (Life Technologies). Secondary antibodies for mouse (Alexa633 conjugated) and rabbit (Alexa488 conjugated) and DAPI were used to develop the fluorescent signal. Stained cells on 96-well plates were analyzed with a CompuCyte iCys Research Imaging Cytometer (Beckman Coulter, IN, USA).

[3] = test system: PLK/DLUC_1C9 parasites in HFF cells; test: Bradyzoite differentiation assay, relative BAG1 promoter activity (Dual-Glo); assay type: cell-based, Toxoplasma gondii; conditions: 1 μM hydroxyzine, 2.5 μM tanshinone IIA; added 24 h after infection, 48 h treatment
Procedure: To measure bradyzoite induction activities of tanshinone IIA and hydroxyzine, PLK/DLUC_1C9 parasites were purified and then inoculated at a concentration of 2.0 x 10^4 parasites/well into 12-well plates containing confluent monolayers of HFF cells. Cells were incubated for 24 h after infection, then compounds were added, and the cells were incubated for 48 h. After incubation, the cells in each well were lysed using 200 μL of Passive Lysis Buffer (Promega) and the lysates were stored at -80°C. For the luciferase assay, 25 μL of lysate was used and the Renilla and firefly luciferase activities were measured by using Dual-Glo (Promega) according to the manufacturer’s instruction.

[4] = test system: RH-2F intracellular parasites in HFF cells; test: Intracellular parasite growth after invasion (β-galactosidase); assay type: cell-based, Toxoplasma gondii; conditions: uninvaded parasites washed away, 48 h; 1.0 μM hydroxyzine, 2.5 μM tanshinone IIA, 25 mg/ml DS10
Procedure: (§1) To measure the effects of tanshinone IIA and hydroxyzine on intracellular parasite growth, parasites were allowed to invade for 2 h, uninvaded parasites were washed away, and medium with compounds was added. After 48 h, the plates were frozen at -80°C. Plates were then thawed just prior to the measurement of beta-galactosidase activity. Beta-Glo (Promega) was used to measure β-galactosidase activity following the manufacturer’s instructions.

[5] = test system: RH-2F tachyzoites (type I strain) in HFF cells; test: Confirmatory screening: RH-2F β-galactosidase growth assay in HFF cells; assay type: cell-based, Toxoplasma gondii; conditions: for IC50: RH-2F in HFF cells, β-galactosidase assay, read-out: IC50 for parasite growth (95% CI)
Procedure: In the confirmatory screening, we utilize an RH strain β-galactosidase reporter parasite termed RH-2F (a type I strain). Briefly, RH-2F parasites were purified from freshly lysed infected host cells and used to infect confluent HFF cells cultured in 96-well plates. Five hundred parasites were added to each well, along with each test compound and 50 μL of culture medium. Plates were then incubated for 10 min at room temperature followed by an incubation at 37°C for 48 h in a CO2 incubator.
as §1

[6] = test system: PLK/DLUC_1C9 tachyzoites in Vero cells; test: Primary screening: T. gondii growth assay, Renilla luciferase; assay type: cell-based, Toxoplasma gondii; conditions: Toxoplasma gondii; 10 μM, 48 h, PLK/DLUC_1C9 in Vero cells; DMSO = 0%, 10 μM pyrimethamine = 100%; read-out: Parasite Inhibition (%)
Procedure: In the primary screening, purified PLK/DLULC_1C9 tachyzoites were incubated with Vero cells at a multiplicity of infection (MOI) of 0.5. After a 2-h incubation, the infected host cells were trypsinized to obtain a cell suspension and then these suspended infected cells were inoculated into 96-well optical bottom plates containing the compound library. Each well was inoculated with 2500 cells in 25 μL of culture medium. […] Following cell inoculation, each well therefore contained 0.5% DMSO and 10 μM compound. After 48 h of culture, Renilla luciferase activity was measured by using Renilla-Glo (Promega, WI, USA) following the manufacturer’s instructions. […] The Z’-value for each plate was calculated from the Renilla luciferase activity in the negative and positive control wells.

[7] = Host cell cytotoxicity assay (Cell-Titer Glo), HFF cells; assay type: cell-based, human; conditions: human, 2.5 μM, 48 h, HFF cells, read-out: Host cell viability (%)
Procedure: (§2) Vero cells and HFF cells were both used as host cells because both cell types were used for the parasite screening. After incubation for 48 h in DMEM supplemented with 5% FBS, L-glutamine, penicillin, and streptomycin, cell viabilities were measured by using a Cell-Titer Glo kit (Promega) following the manufacturer’s instructions. Control wells were treated with DMSO alone in culture medium to calculate the 100% viability for each cell type.

HFF cells [8] = test: as above; assay type: cell-based, human; conditions: 25 μM, 48 h, HFF cells, compared with DMSO
Procedure: as §2

[9] = test system: PLK/DLUC_1C9 in vitro-induced bradyzoites in HFF cells; test: Effect on in vitro-induced bradyzoites (Dual-Glo firefly luciferase, BAG1 promoter); assay type: cell-based, Toxoplasma gondii; conditions: 3 days bradyzoite induction, then 10, 5, 2.5, 1 μM for 48 h; relative to DMSO
Procedure: To measure the effect of tanshinone IIA and hydroxyzine on in vitro-induced bradyzoites, we used PLK/DLUC_ 1C9 parasites and the Dual-Glo luciferase assay. Briefly, HFF cells in 96-well plates were infected with 1 x 10^4 parasites/well and incubated for 3 days with ambient CO2 condition in DMEM containing 25 mM HEPES pH 8.1 and 1% FBS to induce bradyzoites. Induced bradyzoites were treated with 10, 5, 2.5, and 1 μM compounds under bradyzoite-inducing conditions. After 48 h, luciferase activities were measured by using the Dual-Glo assay system (Promega) and normalized by host cell number.

[10] = Host cell cytotoxicity assay (Cell-Titer Glo), Vero cells; assay type: cell-based; conditions: African green monkey; 10 μM, 48 h, Vero cells; DMSO = 100%; read-out: Host Viability (%)
Procedure: as §2, with “Host cells were treated with compounds at the same concentration used for screening (i.e., 0.5% DMSO and 10 μM compound). Vero” for “Vero”

[11] = 2.5 μM, 48 h, RH-2F in HFF, compared with 10 μM pyrimethamine

SMILES | Host cell viability under the bradyzoite-inducing condition (HFF cells [1]; HFF, pH 8.1, 1% FBS, 48 h) | Parasite growth (total parasite vacuole size) [2] | Bradyzoite differentiation (GFP-positive PV rate) [2] | Relative BAG1 promoter activity (bradyzoite ratio) compared with 5 μM pyrimethamine treatment [3] [%] | Parasite growth when compound added after 2 h invasion window [4] | Parasite inhibition (%) [5, 11] [%] | inhibition at 2.5 µM ([5]; Toxoplasma gondii, HFF, 48 h, 2.5 μM, 48 h, RH-2F in HFF, compared with 10 μM pyrimethamine, read-out: Parasite inhibition (%)) [%] | inhibition at 25 µM ([5]; Toxoplasma gondii, HFF, 48 h, 48 h, RH-2F in HFF, compared with 10 μM pyrimethamine, read-out: Parasite inhibition (%)) [%] | IC50 ([5]; Toxoplasma gondii) [nM] | inhibition at 10 µM [6] [%] | viability at 2.5 µM [7] [%] | Host cell viability (%) (HFF cells [8]) | Bradyzoite number (firefly luciferase under BAG1 promoter, normalized by host cell number) [9] | viability at 10 µM [10] [%] | Host cell viability under the bradyzoite-inducing condition (HFF cells [1]; pH 8.1) | inhibition at 25 µM ([5]; Toxoplasma gondii, 48 h, RH-2F in HFF, compared with 10 μM pyrimethamine, read-out: Parasite inhibition (%)) [%] | viability at 48 h, 2.5 µM [7] [%] | Host cell viability (%) (HFF cells [8]; listed as hydroxyzine) | viability at 48 h, 10 µM [10] [%]
Cc1coc2c1C(=O)C(=O)c1c-2ccc2c1CCCC2(C)C [Tanshinone IIA] | slightly reduced the host cell number | reduced parasite growth in a concentration-dependent manner | did not induce bradyzoite differentiation even at high concentrations | 4.7 | reduced parasite growth in a dose dependent manner | 55 | > 50 | 112 | 2500 | 91 | 99 | 75 | reduced the bradyzoite number | 83 | – | – | – | – | –
CCc1nc(N)nc(N)c1-c1ccc(Cl)cc1 [Pyrimethamine] | – | reduced parasite growth in a concentration-dependent manner | induced bradyzoite differentiation | – | – | – | – | – | – | – | – | – | cannot reduce bradyzoite numbers | – | – | – | – | – | –
OCCOCCN1CCN(C(c2ccccc2)c2ccc(Cl)cc2)CC1 (stereo not shown) [Hydroxyzine] | – | reduced parasite growth in a concentration-dependent manner | did not induce bradyzoite differentiation even at high concentrations | 0.4 | reduced parasite growth in a dose dependent manner | 100 | – | – | 1000 | 97 | – | 100 | reduced the bradyzoite number | – | did not affect the host cell viability | 107 | 102 | no effect on host cell viability | 101
